According to US10287267B2, “Isoquinolin-3-yl carboxamides and preparation and use thereof” (Samumed, LLC, priority 2016, dated 2019):

Key:
[1] = system: α-smooth muscle actin (αSMA) positive LL29 cells; assay: Inhibition of fibrotic process: αSMA in TGF-β1 treated primary human fibroblasts from IPF patients; type: cell-based; conditions: Homo sapiens, Fibroblast; for EC50: 96 h, Table 8, LL29 fibroblasts from IPF patients, TGF-β1 20 ng/mL, 4 days, dose-response 10 μM to 0.94 nM; for inhibition at 10 µM: read-out: percent value in parentheses beside EC50 >10 μM;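 on all read-outs here: controls were TGF-β1 stimulated wells with DMSO vehicle (positive) and cells given DMSO alone (negative), cultured in F12 medium with 1% fetal bovine serum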
recombinant GSK3β kinase = recombinant GSK3β kinase (Homo sapiens (Human), UniProt P49841); assay: GSK3β kinase assay (Ser/Thr 09 peptide Z-lyte FRET); type: biochemical; conditions: 46 μM ATP, 1 h room temperature;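 further: kinase activity read as coumarin to fluorescein emission ratio, 11-point threefold dilutions from 10 µM to 0.0003 µM in duplicate, unphosphorylated and phosphorylated peptide as 0% and 100% controls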
Sequence of recombinant GSK3β kinase (P49841 whole entry): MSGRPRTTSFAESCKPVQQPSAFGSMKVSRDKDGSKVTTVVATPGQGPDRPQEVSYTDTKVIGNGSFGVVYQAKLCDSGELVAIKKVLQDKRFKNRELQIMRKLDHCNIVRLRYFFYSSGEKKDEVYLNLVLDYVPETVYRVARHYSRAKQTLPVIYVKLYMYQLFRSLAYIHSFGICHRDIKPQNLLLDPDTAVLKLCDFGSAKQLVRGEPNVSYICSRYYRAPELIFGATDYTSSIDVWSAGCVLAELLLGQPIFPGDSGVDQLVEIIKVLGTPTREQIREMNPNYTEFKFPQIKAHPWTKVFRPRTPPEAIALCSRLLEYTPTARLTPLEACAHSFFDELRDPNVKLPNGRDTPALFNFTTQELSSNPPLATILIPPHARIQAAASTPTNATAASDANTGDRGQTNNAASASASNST

[2] = system: Wnt pathway (Sp5-Luc reporter, TCF/LEF binding sites) in SW480 colon carcinoma cells; assay: Screening assay for Wnt activity: Sp5-Luc reporter gene assay; type: cell-based, human; conditions: Homo sapiens; for inhibition at 10 µM: SW480, read-out: percent inhibition at 10 μM; for EC50: Sp5-Luc reporter, SW480 cells, 36 to 48 hours;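 on all read-outs here: firefly luciferase luminescence read in stably transduced SW480 cells carrying the Sp5 promoter reporter with eight TCF/LEF sites, compounds given in 0.1% DMSO final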
Procedure: The screening assay for Wnt activity is described as follows.
Following incubation, 15 μl of BriteLite Plus luminescence reagent (Perkin Elmer) was added to each well of the 384-well assay plates. The plates were placed on an orbital shaker for 2 min and then luminescence was quantified using the Envision (Perkin Elmer) plate reader.

[3] = system: Tau phosphorylation at Ser396 (pSer396); assay: Tau phosphorylation assay (pSer396 ELISA / western blot) in SH-SY5Y cells; type: cell-based, human; conditions: Homo sapiens; SH-SY5Y cells, overnight (16-18 h) exposure; read-out: pSer396 Tau EC50;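 further: EC50 for reduction of Tau pSer396 in lysed cells, measured by colorimetric ELISA or chemiluminescent western blot, both using the same pSer396 antibody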
[4] = biological target: recombinant DYRK1A kinase (Homo sapiens (Human), UniProt Q13627); assay: DYRK1A kinase assay (Ser/Thr 18 peptide Z-lyte FRET); type: biochemical; conditions: 30 μM ATP, 1 h room temperature;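 further: Read-out is the coumarin to fluorescein emission ratio, referenced to unphosphorylated (0%) and phosphorylated (100%) Ser/Thr 18 peptide controls, values from dose-response curves by non-linear regression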
IL-6 = IL-6 inhibition in LPS-stimulated human peripheral blood mononuclear cells (HTRF); type: cell-based; conditions: Homo sapiens, PBMC; for EC50: Table 9, huPBMCs, LPS 50 ng/mL, 22 hours, dose-response starting from 10 μM; for inhibition at 10 µM: read-out: percent value in parentheses beside EC50 >10 μM;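 on all read-outs here: IL-6 detected by HTRF with an XL665- and Cryptate-labelled anti-IL-6 antibody pair, samples run in duplicate, EC50 obtained from a four-parameter Levenberg-Marquardt curve fit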
Procedure: After 22 hour incubation, a mixture of anti-IL6 XL665 and anti-IL-6 Cryptate diluted in reconstitution buffer (Catalog #62IL6PEC, Cisbio Inc., Bedford, Mass.) was added to each well. […] All samples were processed in duplicate. […] EC50 was determined using software generated by Dotmatics Limited (Windhill Bishops Stortford Herts, UK) using the Levenberg-Marquardt 4 parameter fitting procedure with finite different gradients.

[5] = system: SW480 colon carcinoma cells; assay: Cell viability assay (CellTiter-Glo); type: cell-based, human; conditions: Homo sapiens; for EC50: 96 h, SW480 cells, CellTiter-Glo, four days incubation; for inhibition at 10 µM: SW480, read-out: percent inhibition at 10 μM

SMILES	EC50 [1] [nM]	EC50 (recombinant GSK3β kinase) [nM]	inhibition at 10 µM [2] [%]	EC50 [2] [nM]	EC50 [3] [nM]	EC50 [4] [nM]	EC50 (IL-6) [nM]	EC50 [5] [nM]	inhibition at 10 µM [5] [%]	inhibition at 10 µM [1] [%]	inhibition at 10 µM (IL-6) [%]
Cc1ncc(-c2ccc3cnc(NC(=O)CN4CCN(C)CC4)cc3c2)s1 [Compound 995, 2-(4-Methylpiperazin-1-yl)-N-(6-(2-methylthiazol-5-yl)isoquinolin-3-yl) acetamide]	1250	177	43.8	> 10000	2400	13.3	8930	> 10000	47.6	–	–
Cn1cc(-c2ccc3cnc(NC(=O)C4CCN(S(=O)(=O)c5ccccc5)CC4)cc3c2)cn1 [Compound 964, N-(6-(1-Methyl-1H-pyrazol-4-yl)isoquinolin-3-yl)-1-(phenylsulfonyl) piperidine-4-carboxamide]	> 10000	102	–	1450	576	5.2	> 10000	3830	–	19.7	6.8
Cn1cncc1-c1ccc2cnc(NC(=O)C3(F)CCCCC3)cc2c1 [Compound 527, 1-Fluoro-N-(6-(1-methyl-1H-imidazol-5-yl)isoquinolin-3-yl)cyclohexane-1-carboxamide]	> 10000	415	23.5	> 10000	2400	9.8	9980	> 10000	43.6	37.3	–
CC(C)CN1CCC(F)(C(=O)Nc2cc3cc(-c4cnn5c4CN(CCF)CC5)ccc3cn2)CC1 [Compound 1023, 4-Fluoro-N-(6-(5-(2-fluoroethyl)-4,5,6,7-tetrahydropyrazolo[1,5-a]pyrazin-3-yl)isoquinolin-3-yl)-1-isobutylpiperidine-4-carboxamide]	4670	838	38.2	> 10000	1800	8.7	> 10000	> 10000	39.9	–	20.7
CC(C)CN1CCC(C(=O)Nc2cc3cc(-c4cnn(C)c4)cc(F)c3cn2)CC1 [Compound 367, N-(8-Fluoro-6-(1-methyl-1H-pyrazol-4-yl)isoquinolin-3-yl)-1-isobutylpiperidine-4-carboxamide]	211	56	–	524	258	11.1	1150	8240	–	–	–
C[C@H]1CN(C)CCN1CC(=O)Nc1cc2cc(-c3cnn(C)c3)ccc2cn1 [Compound 355, (S)-2-(2,4-Dimethylpiperazin-1-yl)-N-(6-(1-methyl-1H-pyrazol-4-yl)isoquinolin-3-yl)acetamide]	6190	228	–	3510	1700	6.4	9130	8630	–	–	–
CC(C)N1CCN(CC(=O)Nc2cc3cc(-c4cnn(C)c4)ccc3cn2)CC1 [Compound 352, 2-(4-Isopropylpiperazin-1-yl)-N-(6-(1-methyl-1H-pyrazol-4-yl)isoquinolin-3-yl)acetamide]	1320	110	–	2960	1300	21.5	5030	8600	–	–	–
Cn1cc(-c2cc(F)c3cnc(NC(=O)C4CCNCC4)cc3c2)cn1 [Compound 366, N-(8-Fluoro-6-(1-methyl-1H-pyrazol-4-yl)isoquinolin-3-yl)piperidine-4-carboxamide]	173	116	–	334	1100	10.6	1120	910	–	–	–
O=C(Nc1cc2cc(-c3cnco3)ccc2cn1)C1CC1 [Compound 973, N-(6-(Oxazol-5-yl)isoquinolin-3-yl)cyclopropanecarboxamide]	134	20	–	609	102	2.9	395	391	–	–	–
[2H]C([2H])([2H])n1cc(-c2ccc3cnc(NC(=O)[C@H](C)N4CCCC4)cc3c2)cn1 [Compound 971, (S)—N-(6-(1-(methyl-d3)-1H-pyrazol-4-yl)isoquinolin-3-yl)-2-(pyrrolidin-1-yl)propanamide]	866	34	–	720	191	34.2	1220	1200	–	–	–
O=C(CN1CCCC1)Nc1cc2cc(-c3cnco3)ccc2cn1 [Compound 981, N-(6-(Oxazol-5-yl)isoquinolin-3-yl)-2-(pyrrolidin-1-yl)acetamide]	605	141	–	1080	1100	13.7	1100	546	–	–	–
Cn1ncc(-c2ccc3cnc(NC(=O)C(C)(C)F)cc3c2)c1CN1CCCCC1 [Compound 784, 2-Fluoro-2-methyl-N-(6-(1-methyl-5-(piperidin-1-ylmethyl)-1H-pyrazol-4-yl)isoquinolin-3-yl)propanamide]	> 10000	133	–	5880	2200	10.8	> 10000	> 10000	39.7	37.4	3.7
Cc1ncc(-c2ccc3cnc(NC(=O)C4CC4)cc3c2)n1C [Compound 119, N-(6-(1,2-Dimethyl-1H-imidazol-5-yl)isoquinolin-3-yl) cyclopropanecarboxamide]	1410	7	–	1060	418	2.9	1200	525	–	–	–
CN1CCC(C(=O)Nc2cc3cc(-c4cnsc4)ccc3cn2)CC1 [Compound 970, N-(6-(Isothiazol-4-yl)isoquinolin-3-yl)-1-methylpiperidine-4-carboxamide]	1240	478	–	1360	862	2.3	1130	1260	–	–	–
CN1CCC(C(=O)Nc2cc3cc(-c4cnn(C)c4CO)ccc3cn2)CC1 [Compound 985, N-(6-(5-(Hydroxymethyl)-1-methyl-1H-pyrazol-4-yl)isoquinolin-3-yl)-1-methylpiperidine-4-carboxamide]	> 10000	283	–	1160	3200	4.1	3890	1720	–	38	–
Cn1cc(-c2ccc3cnc(NC(=O)C4(F)CCNCC4)cc3c2)cn1 [Compound 91, 4-Fluoro-N-(6-(1-methyl-1H-pyrazol-4-yl)isoquinolin-3-yl)piperidine-4-carboxamide]	> 10000	838	–	> 10000	4700	10.5	> 10000	9590	–	17.3	40
CO[C@H]1CC[C@H](C(=O)Nc2cc3cc(-c4cnn(C)c4)ccc3cn2)CC1 [Compound 4, trans-4-Methoxy-N-(6-(1-methyl-1H-pyrazol-4-yl)isoquinolin-3-yl) cyclohexane-1-carboxamide]	68	80	–	983	671	1.8	1130	1940	–	–	–
CCN1CCN(CC(=O)Nc2cc3cc(-c4cnn(C)c4)ccc3cn2)CC1 [Compound 351, 2-(4-Ethylpiperazin-1-yl)-N-(6-(1-methyl-1H-pyrazol-4-yl)isoquinolin-3-yl) acetamide]	> 10000	130	–	2520	846	13.6	3010	6880	–	38.8	–
O=C(Nc1cc2cc(-c3cncs3)ccc2cn1)C1(F)CCCCC1 [Compound 704, 1-Fluoro-N-(6-(thiazol-5-yl)isoquinolin-3-yl)cyclohexane-1-carboxamide]	4380	1830	10.2	> 10000	10000	8.2	> 10000	> 10000	18.1	–	4.8
CN1CCN(CC(=O)Nc2cc3cc(-c4cnn(C)c4)cc(F)c3cn2)CC1 [Compound 968, N-(8-Fluoro-6-(1-methyl-1H-pyrazol-4-yl)isoquinolin-3-yl)-2-(4-methylpiperazin-1-yl)acetamide]	> 10000	61	38	> 10000	2700	31.4	9240	> 10000	14.5	24.1	–
CN1CCN(C[C@H]2CC[C@H](C(=O)Nc3cc4cc(-c5cn(C)nn5)ccc4cn3)CC2)CC1 [Compound 448, trans-N-(6-(1-Methyl-1H-1,2,3-triazol-4-yl)isoquinolin-3-yl)-4-((4-methylpiperazin-1-yl)methyl)cyclohexane-1-carboxamide]	59	11	–	289	106	1.2	2180	626	–	–	–
